Patent US10414811B2, “Protease-resistant lipidated GLP-1 analogs” (MEDIMMUNE LIMITED, priority 2015, dated 2019)
Like-named read-outs stand apart in the source and are kept apart here. Numbered stars: 1 amine (or outer) side, 2 acyl side, 3 side chain; on linkers, the order of the positions; unused ones are H or OH. Square brackets hold non-standard residues; d marks the D form. Side chains are listed from the residue outwards. Peptide text beside a SMILES is read from it. * marks the point of attachment. C18 diacid = O=C(O)CCCCCCCCCCCCCCCCC(=O)*; γGlu = O=C(O)[C@H](CCC(=O)[*:2])N[*:1]; αMeF = C[C@](N)(Cc1ccccc1)C(=O)O; αMeK = C[C@](N)(CCCCN)C(=O)O; Lauroyl = CCCCCCCCCCCC(=O)*; αMeS = C[C@](N)(CO)C(=O)O; AEEA = NCCOCCOCC(=O)O; Aib = CC(C)(N)C(=O)O

Columns and labels:
Assay type in all cases: cell-based
[1] = biological target: T1, human GLP-1 receptor (GLP-1R) (Homo sapiens, UniProt P43220); test: cAMP assay, human GLP-1R cells
T1 construct: expressed in transfected cells
Procedure, shortened: (§1)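 Peptide-stimulated cAMP measured by two-step HTRF after a 30 min room-temperature incubation with receptor-expressing cells (hGLP-1R, hGIPR at 1×10^5 cells/ml; hGCGR at 2×10^5 cells/ml). Duplicate dilutions; EC50 from 4-parameter logistic fit of % Delta F.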

[2] = biological target: T2, human glucagon receptor (GCGR) (Homo sapiens, UniProt P47871); test: cAMP assay, human GCGR cells
T2 construct: expressed in transfected cells
Procedure, shortened: as §1

[3] = biological target: T3, human glucose-dependent insulinotropic peptide receptor (GIPR) (Homo sapiens, UniProt P48546); test: cAMP assay, human GIPR cells
T3 construct: expressed in transfected cells
T3 sequence (P48546 22-466): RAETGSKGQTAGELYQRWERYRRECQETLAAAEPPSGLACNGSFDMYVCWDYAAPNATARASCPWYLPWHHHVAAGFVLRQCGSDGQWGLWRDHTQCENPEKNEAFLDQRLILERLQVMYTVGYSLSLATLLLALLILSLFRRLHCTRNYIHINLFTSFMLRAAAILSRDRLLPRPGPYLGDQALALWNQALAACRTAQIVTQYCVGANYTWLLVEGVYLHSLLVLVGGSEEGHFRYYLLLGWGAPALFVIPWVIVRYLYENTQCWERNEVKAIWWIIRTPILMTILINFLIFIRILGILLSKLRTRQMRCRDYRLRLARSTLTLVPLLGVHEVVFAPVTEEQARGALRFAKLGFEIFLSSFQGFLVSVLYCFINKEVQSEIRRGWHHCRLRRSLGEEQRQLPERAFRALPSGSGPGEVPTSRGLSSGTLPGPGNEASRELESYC
Procedure, shortened: as §1

GLP-1R (INS1e assay) = biological target: T4, GLP-1R (INS1e assay) (Rattus norvegicus, UniProt P32301); test: INS1e assay, cAMP activity at GLP-1R
T4 construct: endogenous in cells; host or cells: INS-1E cells
T4 sequence (P32301 22-463): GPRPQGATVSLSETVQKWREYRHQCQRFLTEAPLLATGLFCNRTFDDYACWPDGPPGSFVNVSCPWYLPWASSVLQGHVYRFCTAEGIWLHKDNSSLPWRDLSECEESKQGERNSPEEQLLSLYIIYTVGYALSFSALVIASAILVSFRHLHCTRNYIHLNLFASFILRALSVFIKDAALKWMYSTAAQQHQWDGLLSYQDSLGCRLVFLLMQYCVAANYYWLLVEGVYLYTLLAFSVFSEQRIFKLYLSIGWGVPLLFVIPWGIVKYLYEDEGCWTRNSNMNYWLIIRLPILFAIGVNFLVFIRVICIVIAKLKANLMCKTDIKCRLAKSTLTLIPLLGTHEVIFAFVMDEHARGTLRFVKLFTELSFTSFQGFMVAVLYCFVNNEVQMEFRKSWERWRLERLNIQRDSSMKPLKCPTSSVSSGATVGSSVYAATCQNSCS
Procedure, shortened: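 It pairs cAMP-d2 acceptor with anti-cAMP cryptate donor, both prepared 1/20 in conjugate/lysis buffer, applied as a two-step protocol.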

T2 sequence (P47871 26-477): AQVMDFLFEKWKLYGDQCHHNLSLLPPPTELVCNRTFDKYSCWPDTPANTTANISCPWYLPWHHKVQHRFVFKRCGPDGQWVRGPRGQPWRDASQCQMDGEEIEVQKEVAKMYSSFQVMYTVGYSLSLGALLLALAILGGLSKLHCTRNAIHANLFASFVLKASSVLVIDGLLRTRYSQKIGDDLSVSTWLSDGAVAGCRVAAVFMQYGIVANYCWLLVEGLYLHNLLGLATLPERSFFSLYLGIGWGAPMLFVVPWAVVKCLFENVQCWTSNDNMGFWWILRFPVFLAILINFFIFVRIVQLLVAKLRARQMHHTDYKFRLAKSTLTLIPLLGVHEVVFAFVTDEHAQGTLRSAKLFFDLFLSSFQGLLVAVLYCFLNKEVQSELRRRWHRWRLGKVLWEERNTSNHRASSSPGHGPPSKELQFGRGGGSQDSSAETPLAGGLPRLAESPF
T1 sequence (P43220 24-463): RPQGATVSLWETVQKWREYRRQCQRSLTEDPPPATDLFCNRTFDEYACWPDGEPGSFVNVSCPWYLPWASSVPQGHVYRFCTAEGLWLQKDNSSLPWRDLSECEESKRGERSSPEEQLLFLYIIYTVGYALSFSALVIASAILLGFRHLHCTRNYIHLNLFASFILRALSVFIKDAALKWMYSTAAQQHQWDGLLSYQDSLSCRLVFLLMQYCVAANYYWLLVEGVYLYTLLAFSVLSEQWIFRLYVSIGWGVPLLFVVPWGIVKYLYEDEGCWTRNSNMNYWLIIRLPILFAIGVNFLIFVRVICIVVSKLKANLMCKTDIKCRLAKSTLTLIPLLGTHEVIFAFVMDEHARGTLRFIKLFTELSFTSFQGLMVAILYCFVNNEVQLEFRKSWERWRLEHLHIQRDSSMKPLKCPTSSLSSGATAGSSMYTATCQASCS

EC50 ([1]; tris-lipidated peptides, mean of n1 and n2, read-out: Primary assay EC50 Mean pM GLP-1R) [pM] | EC50 ([1]; tris-lipidated peptides, replicate n1, read-out: Primary assay EC50 GLP-1R n1) [pM] | EC50 ([1]; tris-lipidated peptides, replicate n2, read-out: Primary assay EC50 GLP-1R n2) [pM] | EC50 ([2]; tris-lipidated peptides, second replicate, read-out: Primary assay EC50 Gluc-R (n2)) [nM] | EC50 ([3]; tris-lipidated peptides, first replicate, read-out: Primary assay EC50 GIP-R (n1)) [nM] | EC50 (GLP-1R (INS1e assay); tris-lipidated peptides, mean of n1 and n2, read-out: INS1e assay EC50 Mean pM GLP-1R) [pM] | EC50 (GLP-1R (INS1e assay); tris-lipidated peptides, replicate n1, read-out: INS1e assay EC50 GLP-1R n1) [pM] | EC50 (GLP-1R (INS1e assay); tris-lipidated peptides, replicate n2, read-out: INS1e assay EC50 GLP-1R n2) [pM] | EC50 ([1]; cAMP assay, first determination (n1), read-out: Primary assay EC50 GLP-1R n1) [pM] | EC50 ([1]; cAMP assay, second determination (n2), read-out: Primary assay EC50 GLP-1R n2) [pM] | EC50 ([1]; mean of n1 and n2, read-out: Mean pM GLP-1R) [pM] | EC50 ([2]; cAMP assay, first determination (n1), read-out: Primary assay EC50 Gluc-R (n1)) [nM] | EC50 ([2]; cAMP assay, second determination (n2), read-out: Primary assay EC50 Gluc-R (n2)) [nM] | EC50 ([3]; cAMP assay, first determination (n1), read-out: Primary assay EC50 GIP-R (n1)) [nM] | EC50 ([3]; cAMP assay, second determination (n2), read-out: Primary assay EC50 GIP-R (n2)) [nM] | EC50 (GLP-1R (INS1e assay); mono-lipidated peptides, mean of n1 and n2, read-out: INS1e assay EC50 Mean pM GLP-1R) [pM] | EC50 (GLP-1R (INS1e assay); mono-lipidated peptides, replicate n1, read-out: INS1e assay EC50 GLP-1R n1) [pM] | EC50 (GLP-1R (INS1e assay); mono-lipidated peptides, replicate n2, read-out: INS1e assay EC50 GLP-1R n2) [pM] | SMILES
43.7 | 22.1 | 65.2 | 19.7 | 19.7 | 5550 | 4100 | 6990 |  |  |  |  |  |  |  |  |  |  | CCCCCCCCCCCC(=O)N[C@@H](CCC(=O)NCCOCCOCC(=O)NCCOCCOCC(=O)NCCCC[C@H](NC(=O)[C@H](Cc1ccc(O)cc1)NC(=O)[C@H](CO)NC(=O)[C@](C)(CO)NC(=O)[C@@H](NC(=O)[C@H](CC(=O)O)NC(=O)[C@H](CO)NC(=O)[C@@H](NC(=O)[C@](C)(Cc1ccccc1)NC(=O)[C@H](CO)NC(=O)CNC(=O)[C@H](CCC(=O)O)NC(=O)C(C)(C)NC(=O)[C@@H](N)Cc1c[nH]cn1)[C@@H](C)O)C(C)C)C(=O)N[C@@H](CCC(=O)O)C(=O)NCC(=O)N[C@@H](CCC(=O)O)C(=O)N[C@@H](C)C(=O)N[C@@H](C)C(=O)N[C@@](C)(CCCCN)C(=O)N[C@@H](CCCCNC(=O)COCCOCCNC(=O)COCCOCCNC(=O)CC[C@H](NC(=O)CCCCCCCCCCC)C(=O)O)C(=O)N[C@@H](Cc1ccccc1)C(=O)N[C@H](C(=O)N[C@@H](CCCCNC(=O)COCCOCCNC(=O)COCCOCCNC(=O)CC[C@H](NC(=O)CCCCCCCCCCC)C(=O)O)C(=O)N[C@@H](Cc1ccccc1)C(=O)N[C@H](C(=O)N[C@H](C(=O)N[C@@H](CCC(=O)O)C(=O)NCC(=O)NCC(N)=O)C(C)C)C(C)C)[C@@H](C)CC)C(=O)O [compound 454] (H-H[Aib]EGS[αMeF]TSDV[αMeS]SYK([AEEA-AEEA-γGlu-Lauroyl])EGEAA[αMeK]K([AEEA-AEEA-γGlu-Lauroyl])FIK([AEEA-AEEA-γGlu-Lauroyl])FVVEGG-NH2)
 |  |  |  |  |  |  |  | 3.8 | 3.46 | 4 | ≥ 25 | ≥ 25.4 | ≥ 25 | ≥ 25.4 | 248 | 38 | 458 | CC[C@H](C)[C@H](NC(=O)[C@](C)(Cc1ccccc1)NC(=O)[C@H](CCCCNC(=O)COCCOCCNC(=O)COCCOCCNC(=O)CC[C@H](NC(=O)CCCCCCCCCCCCCCCCC(=O)O)C(=O)O)NC(=O)[C@](C)(CCCCN)NC(=O)[C@H](C)NC(=O)[C@H](C)NC(=O)[C@H](CCC(=O)O)NC(=O)CNC(=O)[C@H](CCC(=O)O)NC(=O)[C@H](CC(C)C)NC(=O)[C@](C)(Cc1ccccc1)NC(=O)[C@H](CO)NC(=O)[C@](C)(CO)NC(=O)[C@@H](NC(=O)[C@H](CC(=O)O)NC(=O)[C@H](CO)NC(=O)[C@@H](NC(=O)[C@](C)(Cc1ccccc1)NC(=O)[C@H](CO)NC(=O)CNC(=O)[C@H](CCC(=O)O)NC(=O)C(C)(C)NC(=O)[C@@H](N)Cc1c[nH]cn1)[C@@H](C)O)C(C)C)C(=O)N[C@@H](C)C(=O)N[C@@](C)(Cc1ccccc1)C(=O)N[C@H](C(=O)N[C@H](C(=O)N[C@@](C)(CCCCN)C(=O)NCC(=O)NCC(N)=O)C(C)C)C(C)C [compound 108] (H-H[Aib]EGS[αMeF]TSDV[αMeS]S[αMeF]LEGEAA[αMeK]K([AEEA-AEEA-γGlu-C18 diacid])[αMeF]IA[αMeF]VV[αMeK]GG-NH2; N-terminus assumed)
